We go through 81 compounds from ChEMBL document CHEMBL3727364, “Resorcinol n-aryl amide compounds, for use as pyruvate dehydrogenase kinase inhibitors” (2015).

The target of this assay is [Pyruvate dehydrogenase (acetyl-transferring)] kinase isozyme 1, mitochondrial (Homo sapiens, UniProt Q15118). As to the kind of experiment: Binding affinity to pyruvate dehydrogenase kinase 1 (unknown origin) incubated for 90 mins by VER-00160364 probe based fluorescence polarization assay. For orientation: Polarisation of emitted light reports the rotation of a fluorescent probe.
Chain of [Pyruvate dehydrogenase (acetyl-transferring)] kinase isozyme 1, mitochondrial (Q15118 whole entry): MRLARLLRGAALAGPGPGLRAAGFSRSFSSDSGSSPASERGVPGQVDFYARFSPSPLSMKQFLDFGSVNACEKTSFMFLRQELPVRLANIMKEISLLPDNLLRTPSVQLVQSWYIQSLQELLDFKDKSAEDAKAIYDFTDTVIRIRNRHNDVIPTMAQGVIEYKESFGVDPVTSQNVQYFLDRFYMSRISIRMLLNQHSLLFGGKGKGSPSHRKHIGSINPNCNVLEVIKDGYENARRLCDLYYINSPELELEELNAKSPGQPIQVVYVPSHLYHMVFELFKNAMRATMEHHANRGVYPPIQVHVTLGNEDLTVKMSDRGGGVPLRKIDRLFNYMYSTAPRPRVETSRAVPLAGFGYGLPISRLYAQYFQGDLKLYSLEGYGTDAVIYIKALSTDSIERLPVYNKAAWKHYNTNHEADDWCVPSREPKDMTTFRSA
`O=C(c1ccc(O)cc1O)N(Cc1ccsc1)c1ccc(-c2ccnc3ccccc23)cc1` displayed a concentration for half-maximal inhibition (IC50) of 1000 nM.
Regarding `O=C(c1ccc(O)cc1O)N(Cc1ccsc1)c1ccc(-c2nc3ccccc3cc2CO)cc1`, the concentration for half-maximal inhibition (IC50) amounted to 100 nM.
On to `Cc1cc2cc(F)ccc2nc1-c1ccc(N(Cc2ccsc2)C(=O)c2ccc(O)cc2O)cc1`, for which the IC50 was 1000 nM.
In turn, `O=C(c1ccc(O)cc1O)N(Cc1cccnc1)c1ccc(-c2nccc3occc23)cc1` displayed an IC50 of 1000 nM.
For `O=C(c1ccc(O)cc1O)N(Cc1ccsc1)c1ccc(-c2cnc3ccccc3n2)cc1` the value was 10000 nM; for `CN(Cc1cccc2ccccc12)C(=O)c1ccc(N(Cc2ccsc2)C(=O)c2ccc(O)cc2O)cc1`, 1000 nM; for `COc1cnc(Cl)nc1-c1ccc(N(Cc2ccsc2)C(=O)c2ccc(O)cc2O)cc1`, 100 nM.
For `Cc1ccc(S(N)(=O)=O)nc1-c1ccc(N(Cc2ccsc2)C(=O)c2ccc(O)cc2O)cc1`, the IC50 worked out at 100 nM.
For `Cc1nc(-c2ccc(N(Cc3ccsc3)C(=O)c3ccc(O)cc3O)cc2)c2ccccc2n1` the value was 1000 nM; for `CCc1cc2ccccc2nc1-c1ccc(N(Cc2ccsc2)C(=O)c2ccc(O)cc2O)cc1`, 1000 nM; for `Cc1cc(S(=O)(=O)N2CCCCC2)cnc1-c1ccc(N(Cc2ccsc2)C(=O)c2ccc(O)cc2O)cc1`, 10 nM.
Then `Nc1nccc(-c2ccc(N(Cc3cccnc3)C(=O)c3ccc(O)cc3O)cc2)n1`, with 1000 nM; and `O=C(c1ccc(O)cc1O)N(Cc1cccnc1)c1ccc(-c2nc(C(F)(F)F)ccc2C(F)(F)F)cc1`, with 10 nM.
Then `O=C(c1ccc(O)cc1O)N(Cc1cccnc1)c1ccc(-c2nc(Cl)nc3[nH]ccc23)cc1`, with 100 nM; and `CN(Cc1ccc2ccccc2n1)C(=O)c1ccc(N(Cc2ccsc2)C(=O)c2ccc(O)cc2O)cc1`, with 100 nM; and `COc1ccc(CN(C)C(=O)c2ccc(N(Cc3ccsc3)C(=O)c3cc(Cl)c(O)cc3O)cc2)cc1`, with 100 nM.
Compound `CN(C)C(=O)c1ccc(N(Cc2ccsc2)C(=O)c2ccc(O)cc2O)cc1` yielded an IC50 of 10 nM.
In turn, `O=C(c1ccc(O)cc1O)N(Cc1ccsc1)c1ccc(-c2ncnc3ccc(Cl)cc23)cc1` gave an IC50 of 1000 nM.
For `Cc1nc(N(C)C)nc(-c2ccc(N(Cc3cccnc3)C(=O)c3ccc(O)cc3O)cc2)c1C` the value was 1000 nM; for `CCc1cnc(C)nc1-c1ccc(N(Cc2cccnc2)C(=O)c2ccc(O)cc2O)cc1`, 10 nM; for `COc1cc(-c2ccc(N(Cc3ccsc3)C(=O)c3ccc(O)cc3O)cc2)cnc1OC`, 10000 nM.
Then `CSc1nc(-c2ccc(N(Cc3ccsc3)C(=O)c3ccc(O)cc3O)cc2)c2cc[nH]c2n1`, with 1000 nM; and `COc1cc(-c2ccc(N(Cc3ccsc3)C(=O)c3ccc(O)cc3O)cc2)ncn1`, with 10000 nM.
For `N#Cc1cc(Cl)nc(-c2ccc(N(Cc3cccnc3)C(=O)c3ccc(O)cc3O)cc2)c1` the value was 100 nM.
With `COc1ccc2nc(-c3ccc(N(Cc4ccsc4)C(=O)c4ccc(O)cc4O)cc3)c(C)cc2c1`, the IC50 amounted to 100 nM.
For `N#Cc1cc(Cl)nc(-c2ccc(N(Cc3ccsc3)C(=O)c3ccc(O)cc3O)cc2)c1` the value was 10000 nM; for `O=C(c1ccc(O)cc1O)N(Cc1ccsc1)c1ccc(-c2ncnc3cccc(F)c23)cc1`, 100 nM; for `Cc1cc(S(=O)(=O)N(C)CCO)cnc1-c1ccc(N(Cc2ccsc2)C(=O)c2ccc(O)cc2O)cc1`, 100 nM.
Then `Cc1cc(S(=O)(=O)N2CCN(C)CC2)cnc1-c1ccc(N(Cc2ccsc2)C(=O)c2ccc(O)cc2O)cc1`, with 10 nM; and `Cc1cc2ccc(F)cc2nc1-c1ccc(N(Cc2ccsc2)C(=O)c2ccc(O)cc2O)cc1`, with 100 nM.
Then `Nc1nccc(-c2ccc(N(Cc3ccsc3)C(=O)c3ccc(O)cc3O)cc2)n1`, with 1000 nM; and `CCNc1cc(-c2ccc(N(Cc3ccsc3)C(=O)c3ccc(O)cc3O)cc2)ncn1`, with 10000 nM; and `CN(Cc1ccc2ccccc2c1)C(=O)c1ccc(N(Cc2ccsc2)C(=O)c2ccc(O)cc2O)cc1`, with 1000 nM.
For the compound `Cc1cc(S(=O)(=O)N2CCC(F)(F)CC2)cnc1-c1ccc(N(Cc2ccsc2)C(=O)c2ccc(O)cc2O)cc1`, the IC50 was found to be 1000 nM.
For `Cc1cc2ccccc2nc1-c1ccc(N(Cc2ccsc2)C(=O)c2ccc(O)cc2O)cc1` the value was 100 nM.
For `O=C(c1ccc(O)cc1O)N(Cc1ccsc1)c1ccc(-c2nc(Cl)nc3[nH]ccc23)cc1`, the IC50 worked out at 1000 nM.
For `CN(Cc1ccnc2ccccc12)C(=O)c1ccc(N(Cc2ccsc2)C(=O)c2ccc(O)cc2O)cc1` the value was 100 nM.
Then `Cc1cc(S(=O)(=O)NCCN(C)C)cnc1-c1ccc(N(Cc2ccsc2)C(=O)c2ccc(O)cc2O)cc1`, with 10 nM; and `Cc1cccnc1-c1ccc(N(Cc2cccnc2)C(=O)c2cc(Cl)c(O)cc2O)cc1`, with 10 nM.
Then `O=C(c1ccc(O)cc1O)N(Cc1ccsc1)c1ccc(-c2ncnc3ccsc23)cc1`, with 1000 nM; and `CN(Cc1ccc2c(ccn2C)c1)C(=O)c1ccc(N(Cc2ccsc2)C(=O)c2ccc(O)cc2O)cc1`, with 1000 nM; and `O=C(c1ccc(O)cc1O)N(Cc1ccsc1)c1ccc(-c2ncccc2CO)cc1`, with 100 nM.
In turn, `CSc1nc(Cl)cc(-c2ccc(N(Cc3cccnc3)C(=O)c3ccc(O)cc3O)cc2)n1` came in with an IC50 of 1000 nM.
Then `Cc1nccnc1-c1ccc(N(Cc2ccsc2)C(=O)c2ccc(O)cc2O)cc1`, with 100 nM.
For `Cc1nc(C(F)(F)F)nc(-c2ccc(N(Cc3ccsc3)C(=O)c3ccc(O)cc3O)cc2)c1C` the value was 100 nM; for `O=C(c1ccc(O)cc1O)N(Cc1ccsc1)c1ccc(-c2nc(Cl)nc3c2COCC3)cc1`, 100 nM; for `Cc1cc(S(=O)(=O)NCc2ccccc2)cnc1-c1ccc(N(Cc2ccsc2)C(=O)c2ccc(O)cc2O)cc1`, 100 nM.
The compound `Cc1csc2ncnc(-c3ccc(N(Cc4cccnc4)C(=O)c4ccc(O)cc4O)cc3)c12` yielded an IC50 of 100 nM.
Then `Cc1cc2ccccc2nc1-c1ccc(N(Cc2cccnc2)C(=O)c2ccc(O)cc2O)cc1`, with 10 nM; and `O=C(c1ccc(O)cc1O)N(Cc1ccsc1)c1ccc(-c2nc(C(F)(F)F)nc3ccccc23)cc1`, with 100 nM; and `Cc1cnc(Cl)nc1-c1ccc(N(Cc2ccsc2)C(=O)c2cc(Cl)c(O)cc2O)cc1`, with 10 nM.
For `COc1ccc(CN(C)C(=O)c2ccc(N(Cc3ccsc3)C(=O)c3cc(C)c(O)cc3O)cc2)cc1` the value was 10 nM; for `Cc1cccnc1-c1ccc(N(Cc2cccnc2)C(=O)c2ccc(O)cc2O)cc1`, 100 nM.
For `Cc1ncc(C)c(-c2ccc(N(Cc3ccsc3)C(=O)c3ccc(O)cc3O)cc2)n1` the value was 10 nM; for `CCc1nccnc1-c1ccc(N(Cc2ccsc2)C(=O)c2ccc(O)cc2O)cc1`, 100 nM.
Regarding `CN(Cc1ccc(OC(F)(F)F)cc1)C(=O)c1ccc(N(Cc2ccsc2)C(=O)c2ccc(O)cc2O)cc1`, the IC50 was found to be 1000 nM.
Then `Cc1cnc(Cl)nc1-c1ccc(N(Cc2ccsc2)C(=O)c2ccc(O)cc2O)cc1`, with 100 nM; and `COc1cc2cc(Cl)ccc2nc1-c1ccc(N(Cc2ccsc2)C(=O)c2ccc(O)cc2O)cc1`, with 100 nM.
For `O=C(c1ccc(O)cc1O)N(Cc1cccnc1)c1ccc(-c2ccnc3ccsc23)cc1` the value was 100 nM.
Then `Cc1nc(C)c(-c2ccc(N(Cc3cccnc3)C(=O)c3ccc(O)cc3O)cc2)s1`, with 1000 nM; and `Cc1sc2ncnc(-c3ccc(N(Cc4ccsc4)C(=O)c4ccc(O)cc4O)cc3)c2c1C`, with 1000 nM; and `Cc1ccnnc1-c1ccc(N(Cc2cccnc2)C(=O)c2ccc(O)cc2O)cc1`, with 100 nM.
With `CN(Cc1cccc2cnccc12)C(=O)c1ccc(N(Cc2ccsc2)C(=O)c2ccc(O)cc2O)cc1`, the IC50 was determined as 10 nM.
Consider `CN(Cc1cccc2cccnc12)C(=O)c1ccc(N(Cc2ccsc2)C(=O)c2ccc(O)cc2O)cc1`, for which the IC50 is 100 nM.
Compound `Cc1csc2ncnc(-c3ccc(N(Cc4ccsc4)C(=O)c4ccc(O)cc4O)cc3)c12` had an IC50 of 100 nM.
Then `Cc1cc(C(=O)N(Cc2ccsc2)c2ccc(C(=O)N(C)C)cc2)c(O)cc1O`, with 100 nM; and `CN(Cc1cccs1)C(=O)c1ccc(N(Cc2ccsc2)C(=O)c2ccc(O)cc2O)cc1`, with 100 nM; and `CN(Cc1cccc2ncccc12)C(=O)c1ccc(N(Cc2ccsc2)C(=O)c2ccc(O)cc2O)cc1`, with 100 nM.
Then `Cc1c(Cl)nc(Cl)nc1-c1ccc(N(Cc2cccnc2)C(=O)c2ccc(O)cc2O)cc1`, with 10 nM.
Then `COc1cc(-c2ccc(N(Cc3cccnc3)C(=O)c3ccc(O)cc3O)cc2)ncn1`, with 1000 nM.
On to `O=C(c1ccc(O)cc1O)N(Cc1ccsc1)c1ccc(-c2nc(C(F)(F)F)ccc2C(F)(F)F)cc1`, for which the IC50 is 1000 nM.
For the compound `Cc1cc(S(=O)(=O)NCc2cccnc2)cnc1-c1ccc(N(Cc2ccsc2)C(=O)c2ccc(O)cc2O)cc1`, the IC50 worked out at 10 nM.
Compound `CCOc1ccc2nc(-c3ccc(N(Cc4ccsc4)C(=O)c4ccc(O)cc4O)cc3)c(C)cc2c1` returned an IC50 of 1000 nM.
Then `O=C(c1ccc(O)cc1O)N(Cc1cccnc1)c1ccc(-c2nc(Cl)nc3c2COCC3)cc1`, with 100 nM; and `Cc1cc(S(=O)(=O)N2CC(F)(F)C2)cnc1-c1ccc(N(Cc2ccsc2)C(=O)c2ccc(O)cc2O)cc1`, with 100 nM; and `Cc1cc(C(=O)N(Cc2ccsc2)c2ccc(C(=O)N(C)Cc3ccc4nccnc4c3)cc2)c(O)cc1O`, with 10 nM.
Then `O=C(c1ccc(O)cc1O)N(Cc1ccsc1)c1ccc(-c2ccncc2C(F)(F)F)cc1`, with 1000 nM; and `COc1ccc(CN(C)C(=O)c2ccc(N(Cc3ccsc3)C(=O)c3ccc(O)cc3O)cc2)cc1`, with 100 nM.
For `Cc1nc(C(F)(F)F)nc(-c2ccc(N(Cc3cccnc3)C(=O)c3ccc(O)cc3O)cc2)c1C` the value was 10 nM.
`Cc1cc2cc(Cl)ccc2nc1-c1ccc(N(Cc2ccsc2)C(=O)c2ccc(O)cc2O)cc1` came in with an IC50 of 1000 nM.
Then `CC(=O)N1CCN(S(=O)(=O)c2cnc(-c3ccc(N(Cc4ccsc4)C(=O)c4ccc(O)cc4O)cc3)c(C)c2)CC1`, with 10 nM.

In general, IC50 refers to the concentration at which inhibition is half-maximal. Read a low IC50 as greater potency in that assay.
